Test results as given in patent publication US8277860B2, “Method of stabilizing 1,4-dihydroxy-2-naphthoic acid” (Meiji Co., Ltd., priority 2003, dated 2012).

Assays:
[1] = Nitrogen gas substitution test: DHNA content during preparation and preservation of DHNA-containing plain yogurt; assay type: physicochemical
Experimental: (§1) A 5 ml portion of each sample was passed through a solid phase extraction column (Oasis HLB, manufactured by Waters Corporation) conditioned with 5 ml of methanol and 4 ml of 1% (w/v) sodium ascorbate aqueous solution. After washing with 5 ml of an aqueous solution of 1% (w/v) sodium ascorbate and elution with 4 ml of an aqueous solution of 10% (w/v) sodium ascorbate/methanol (1:9), the thus obtained eluate was concentrated under reduced pressure. A 1 ml portion thereof was sampled and filled up with the aforementioned sodium ascorbate-containing methanol. The mixture was filtered through a 0.5 μm filter and subjected to HPLC (column: Cadenza CD-C18 (4.6×150 mm, manufactured by Imtact Corporation), mobile phase: acetonitrile, methanol, water and acetic acid (10:20:200:0.1, vol/vol/vol/vol, adjusted to pH 7 with aqueous ammonia), detector: UV detector, detection wavelength: 254 nm, flow rate: 1.5 ml/min, column temperature: 45° C., sample injection: 20 μl). […]
The DHNA content contained in the plain yogurt was measured in accordance with the aforementioned test example, at respective steps of before pasteurization of the mix, after pasteurization of the same, just after inoculation of the bulk starter and completion of the fermentation, and after the lapse of the preservation for 1 week and 2 weeks, according to the production of plain yogurt of this Example.

[2] = Nitrogen gas substitution test: DHNA content during preservation of DHNA-containing vegetable drink; assay type: physicochemical; conditions: vegetable drink with ascorbic acid; nitrogen bubbled until dissolved oxygen 5 ppm; pasteurized 140° C. 3 seconds; ordinary temperature (25° C.) preservation, 2 months
Experimental: as §1, with “μl). A calibration curve was prepared by preparing a 1 mg/ml (methanol solution) standard stock solution of a DHNA preparation (046-22422, manufactured by Wako Pure Chemical Industries, Ltd.) and using the solution after optionally diluting with methanol.” for “μl).”

DHNA content after heat pasteurization in comparison with the content before heat pasteurization ([1]; control plain yogurt mix without nitrogen gas bubbling (dissolved oxygen about 10 ppm), heating at 95° C. for 5 minutes): about 30%
loss of DHNA during the preparation and preservation ([1]; plain yogurt mix bubbled with nitrogen gas (dissolved oxygen less than 1 ppm), pasteurized 95° C. 5 minutes, fermented 43° C. 4 hours, preserved in the dark at 10° C. for 2 weeks): almost completely inhibited
Compound: O=C(O)c1cc(O)c2ccccc2c1O [DHNA, 1,4-dihydroxy-2-naphthoic acid]
reduction of the DHNA content during preservation [2]: can be inhibited for a prolonged period of time
